Laboratory results published in paper PMC5983740, “Tryptophan-Containing Dual Neuroprotective Peptides: Prolyl Endopeptidase Inhibition and Caenorhabditis elegans Protection from β-Amyloid Peptide Toxicity” (International Journal of Molecular Sciences, 2018).
Ends that are not written are not given here.

Columns and labels:
[1] = test system: C. elegans wild-type strain N2; experiment: C. elegans oxidative stress assay (H2O2); assay type: in vivo, Caenorhabditis elegans; details: 2 mM H2O2 for 5 h
Experimental: (§1) Wild-type Bristol strain N2 and the transgenic strain CL4176 (smg-1^ts [pAF29(myo-3/Aβ1–42/let UTR) + pRF4(rol-6(su10069))]) were obtained from the Caenorhabditis Genetics Center (College of Biological Sciences, University of Minnesota, Saint Paul, MN, USA) and were used for oxidative stress experiments and paralysis assays, respectively. C. elegans strains were routinely propagated on Nematode Growth Medium (NGM) plates with Escherichia coli strain OP50 as a food source at 20 °C (N2) or at 16 °C (CL4176). Worms were synchronized by isolating eggs from gravid adults at 20 °C (N2) or at 16 °C (CL4176), and eggs were hatched overnight in NGM plates.
(§2) In the oxidative and paralysis experiments, worms were fed with the different compounds from egg to adult stages, and transferred to new plates every two days.
For oxidative stress experiments, strain N2 was egg-synchronized in NGM plates (control medium) and NGM supplemented with 0.1 µg/mL peptides or 0.1 mg/mL vitamin C (positive control). The viability of C. elegans was assessed after 2 mM hydrogen peroxide (H2O2)-induced oxidative stress for 5 h. Experiments were carried out in triplicate.

[2] = biological target: T1, prolyl endopeptidase (PEP) (Elizabethkingia meningoseptica, UniProt P27028); experiment: biochemical; assay type: biochemical; details: for PEP Residual Activity (%) / PEP inhibition (in words) / PEP inhibitory activity (% inhibition): peptide 1 mg/mL; for PEP Residual Activity (%): % of control without peptide (100%), pH 7, 30 °C, 30 min, mean ± SD of three replicates, SD; for PEP inhibition (in words): P-containing peptides; for PEP inhibition: highest concentration tested, 3.3 mg/mL
T1 construct: purchased Seikagaku Corporation (Tokyo, Japan)
T1 sequence (P27028 21-705): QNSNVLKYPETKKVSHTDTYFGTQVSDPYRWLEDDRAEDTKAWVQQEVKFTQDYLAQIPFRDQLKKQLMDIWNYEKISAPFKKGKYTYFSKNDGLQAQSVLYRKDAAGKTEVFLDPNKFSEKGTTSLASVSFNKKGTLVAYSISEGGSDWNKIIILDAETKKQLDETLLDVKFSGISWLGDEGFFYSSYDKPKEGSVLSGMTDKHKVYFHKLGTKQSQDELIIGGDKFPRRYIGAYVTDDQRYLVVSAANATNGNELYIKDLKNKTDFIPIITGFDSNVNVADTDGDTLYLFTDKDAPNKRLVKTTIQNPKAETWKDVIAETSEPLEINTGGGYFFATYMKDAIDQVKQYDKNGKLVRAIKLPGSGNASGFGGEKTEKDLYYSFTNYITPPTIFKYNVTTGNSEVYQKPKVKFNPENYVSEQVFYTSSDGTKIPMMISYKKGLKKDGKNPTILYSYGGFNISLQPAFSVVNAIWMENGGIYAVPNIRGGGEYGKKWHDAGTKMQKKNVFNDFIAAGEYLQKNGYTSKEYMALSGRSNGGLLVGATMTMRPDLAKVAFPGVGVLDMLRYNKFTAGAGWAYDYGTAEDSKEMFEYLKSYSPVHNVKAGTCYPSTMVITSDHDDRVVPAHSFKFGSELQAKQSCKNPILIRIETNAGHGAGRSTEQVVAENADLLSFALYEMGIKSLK
Experimental: The PEP activity was determined as previously described with minor modifications. Enzyme assays were performed in 96-well microplates using Z-Gly-Pro-p-nitroanilide as a substrate and measuring the increase in absorbance at 410 nm due to the release of p-nitroaniline. Ten µL of tenfold peptide or hydrolysate solution in 100 mM sodium phosphate buffer, pH 7 ([…] for LFHs), 30 µL of a 0.1 U/mL PEP solution in 100 mM sodium phosphate buffer (pH 7) and 35 µL of the same sodium phosphate buffer were pre-incubated at 30 °C for 5 min, and the mixture incubated with 25 µL of 2 mM Z-Gly-Pro-p-nitroanilide in 40% 1,4-dioxane for 30 min at the same temperature. The reaction was finished by the addition of 100 µL 10% Triton X-100 in 1 M sodium acetate buffer (pH 4), and the absorbance measured at 410 nm in a microplate reader. Data are expressed as the percentage of PEP residual activity with respect to a control without peptide (100%).
The IC50 value of a peptide was defined as the concentration required to inhibit 50% of the PEP activity and the value for each experiment was estimated by non-linear regression of the experimental data to a four-parameter logistic curve using the software package SigmaPlot v 13.0 (SPSS Inc., Chicago, IL, USA).

[3] = test system: transgenic C. elegans strain CL4176 engineered to express human Aβ1–42; experiment: C. elegans paralysis assay (Aβ1–42-induced paralysis); assay type: in vivo, Caenorhabditis elegans
Experimental: as §1, §2
Paralysis is induced in strain CL4176 by the expression of a muscle-specific Aβ1–42 which depends on up-shifting temperature from 16 to 25 °C [7, 8]. For paralysis experiments, strain CL4176 maintained at 16 °C was egg-synchronized in plates containing NGM (control medium) and NGM with peptides (0.02–5 µg/mL). Transgene expression was induced by up-shifting the temperature from 16 to 25 °C, starting 24 h after egg laying and maintained for 24 h. The worms were incubated at 20 °C until all the worms in the experiment became paralyzed. Paralysis was scored 24 h after induction. Paralysis in induced worms was compared with non-induced worms (maintained at 16 °C until the end of the paralysis assay). Experiments were carried out at least in duplicate.

[4] = biological target: T1, prolyl endopeptidase (PEP); design: method as in 2 sources, ref 29 = [29]; PMID 26574880; doi:10.1039/C5FO01262G; 29. Hsieh C.-H. Wang T.-Y. Hung C.-C. Hsieh Y.-L. Hsu K.-C. Isolation of prolyl endopeptidase inhibitory peptides from a sodium caseinate hydrolysate Food Funct. 2016 7 565 573 10.1039/C5FO01262G 2657 ||| ref 31 = [31]; PMID 23675471; doi:10.1371/journal.pone.0063283; 31. Martorell P. Bataller E. Llopis S. Gonzalez N. Alvarez B. Monton F. Ortiz P. Ramon D. Genoves S. A cocoa peptide protects Caenorhabditis elegans from oxidative stress and β-amyloid peptide toxicit; details: cocoa hydrolysate peptide; cited from earlier work
[5] = 0.1 µg/mL, average paralysis curve of the independent trials
[6] = dose 0.1 µg/mL, trial 1, hours after temperature up-shift
[7] = dose 0.1 µg/mL, trial 2, hours after temperature up-shift
[8] = dose 0.1 µg/mL, trial 3, hours after temperature up-shift

O=C1O[C@H]([C@@H](O)CO)C(O)=C1O [vitamin C, reference compound]
worm survival after oxidative stress (in words) ([1]; vitamin C 10 µg/mL (Figure 4; method says 0.1 mg/mL), positive control): significant protection

Ac-RKWFHLW-NH2 [PACEI48L, synthetic heptapeptide Ac-RKWFHLW-NH2]
PEP Residual Activity (%) [2]: 61.4 ± 4.4 (a) %

Ac-RKWFLHW-NH2 [PACEI49L, synthetic heptapeptide Ac-RKWFLHW-NH2]
PEP Residual Activity (%) [2]: 46.8 ± 9.1 (b) %

Ac-RKWHFLW-NH2 [PACEI50L]
PEP Residual Activity (%) [2]: 6.4 ± 2.3 (c) %
decrease of paralyzed worms compared with control fed nematodes at 49 h ([3]; 0.1 µg/mL, average curves): 25.2%
% of non-paralyzed worms at onset paralysis [3, 5]: 99%
Onset Paralysis, time [3, 5]: 41 h
Paralyzed Worms (percentage at 49 h) [3, 5]: 42.3%
effect on paralysis (in words) ([3]; dose 0.02 µg/mL, data not shown): did not provide any effect
% of non-paralyzed worms at onset paralysis ([3]; dose 0.1 µg/mL, trial 1): 98.4%
Paralyzed Worms at 49 h ([3]; dose 0.1 µg/mL, trial 1): 48.7%
Onset Paralysis, time [3, 6]: 41 h
% of non-paralyzed worms at onset paralysis ([3]; dose 0.1 µg/mL, trial 2): 99.1%
Paralyzed Worms at 49 h ([3]; dose 0.1 µg/mL, trial 2): 21.9%
Onset Paralysis, time [3, 7]: 43 h
% of non-paralyzed worms at onset paralysis ([3]; dose 0.1 µg/mL, trial 3): 97.5%
Paralyzed Worms at 49 h ([3]; dose 0.1 µg/mL, trial 3): 56.2%
Onset Paralysis, time [3, 8]: 43 h
% of non-paralyzed worms at onset paralysis ([3]; dose 0.5 µg/mL, trial 1): 96.7%
Paralyzed Worms at 49 h ([3]; dose 0.5 µg/mL, trial 1): 41.3%
Onset Paralysis, time ([3]; dose 0.5 µg/mL, trial 1, hours after temperature up-shift): 45 h
% of non-paralyzed worms at onset paralysis ([3]; dose 0.5 µg/mL, trial 2): 99.2%
Paralyzed Worms at 49 h ([3]; dose 0.5 µg/mL, trial 2): 41.7%
Onset Paralysis, time ([3]; dose 0.5 µg/mL, trial 2, hours after temperature up-shift): 43 h
worm survival after oxidative stress (in words) ([1]; peptide 0.1 µg/mL, triplicate): none of them was able to increase the worm survival

Ac-RKWHLFW-NH2 [PACEI51L, synthetic heptapeptide Ac-RKWHLFW-NH2]
PEP Residual Activity (%) [2]: 71.6 ± 4.9 (a) %

Ac-RKWLFHW-NH2 [PACEI52L, synthetic heptapeptide Ac-RKWLFHW-NH2]
PEP Residual Activity (%) [2]: 65.9 ± 3.6 (a) %

Ac-RKWLHFW-NH2 [PACEI53L, synthetic heptapeptide Ac-RKWLHFW-NH2]
PEP Residual Activity (%) [2]: 71.5 ± 4.5 (a) %

DNYDNSAGKWWVT [Peptide 13L]
IC50 (PEP inhibition) [4]: 190 µg/mL

DRDQY [PKH1, synthetic peptide identified in proteinase K lactoferrin hydrolysate, DRDQY]
PEP Residual Activity (%) [2]: 102.7 ± 7.0%

DRDQYELL [PKH7, synthetic peptide identified in proteinase K lactoferrin hydrolysate, DRDQYELL]
PEP Residual Activity (%) [2]: 115.3 ± 4.2 %

ENLPEKA [PKH3, synthetic peptide identified in proteinase K lactoferrin hydrolysate, ENLPEKA]
PEP Residual Activity (%) [2]: 97.1 ± 0.1%
PEP inhibition (in words) [2]: failed to inhibit PEP

GGRPTYEEY [PKH5, synthetic peptide identified in proteinase K lactoferrin hydrolysate, …]
PEP Residual Activity (%) [2]: 96.9 ± 2.1%
PEP inhibition (in words) [2]: failed to inhibit PEP

GILRPY [PKH6, synthetic peptide identified in proteinase K lactoferrin hydrolysate, GILRPY]
PEP Residual Activity (%) [2]: 97.2 ± 4.0%
PEP inhibition (in words) [2]: failed to inhibit PEP

GILRPYL [PKH10, synthetic peptide identified in proteinase K lactoferrin hydrolysate, GILRPYL]
PEP Residual Activity (%) [2]: 103.9 ± 0.8%
PEP inhibition (in words) [2]: failed to inhibit PEP

NEGLTW [PKH8, LF-derived hexapeptide NEGLTW]
PEP inhibitory activity (% inhibition) [2]: 12%
PEP Residual Activity (%) [2]: 87.1 ± 1.0 %

NIPMGL [PKH9, synthetic peptide identified in proteinase K lactoferrin hydrolysate, NIPMGL]
PEP Residual Activity (%) [2]: 95.5 ± 3.4%
PEP inhibition (in words) [2]: failed to inhibit PEP

RIPSKV [PKH4, synthetic peptide identified in proteinase K lactoferrin hydrolysate, RIPSKV]
PEP Residual Activity (%) [2]: 109.6 ± 2.2 %
PEP inhibition (in words) [2]: failed to inhibit PEP

RKAHFLA [PACEI50L-v2, PACEI50L derivative, both W residues at position 3 and 7 replaced with A, RKAHFLA]
PEP inhibition [2]: did not exhibit a clear inhibitory effect
final percentage of non-paralyzed worms, lower than the control conditions by ([3]; 0.1 µg/mL, average curves): 5.6%
% of non-paralyzed worms at onset paralysis [3, 5]: 92%
Onset Paralysis, time [3, 5]: 41 h
Paralyzed Worms (percentage at 49 h) [3, 5]: 73.1%
% of non-paralyzed worms at onset paralysis ([3]; dose 0.1 µg/mL, trial 1): 91.3%
Paralyzed Worms at 49 h ([3]; dose 0.1 µg/mL, trial 1): 74.9%
Onset Paralysis, time [3, 6]: 41 h
% of non-paralyzed worms at onset paralysis ([3]; dose 0.1 µg/mL, trial 2): 90.7%
Paralyzed Worms at 49 h ([3]; dose 0.1 µg/mL, trial 2): 75.9%
Onset Paralysis, time [3, 7]: 41 h
% of non-paralyzed worms at onset paralysis ([3]; dose 0.1 µg/mL, trial 3): 94.7%
Paralyzed Worms at 49 h ([3]; dose 0.1 µg/mL, trial 3): 68.4%
Onset Paralysis, time [3, 8]: 41 h

RKWHFLA [PACEI50L-v1]
PEP inhibition [2]: 20%
% of non-paralyzed worms at onset paralysis [3, 5]: 94%
Onset Paralysis, time [3, 5]: 41 h
Paralyzed Worms (percentage at 49 h) [3, 5]: 62.8%
% of non-paralyzed worms at onset paralysis ([3]; dose 0.1 µg/mL, trial 1): 98.0%
Paralyzed Worms at 49 h ([3]; dose 0.1 µg/mL, trial 1): 62.5%
Onset Paralysis, time [3, 6]: 41 h
% of non-paralyzed worms at onset paralysis ([3]; dose 0.1 µg/mL, trial 2): 91.7%
Paralyzed Worms at 49 h ([3]; dose 0.1 µg/mL, trial 2): 71.9%
Onset Paralysis, time [3, 7]: 41 h
% of non-paralyzed worms at onset paralysis ([3]; dose 0.1 µg/mL, trial 3): 93.3%
Paralyzed Worms at 49 h ([3]; dose 0.1 µg/mL, trial 3): 53.7%
Onset Paralysis, time [3, 8]: 41 h

SVDGKEDLIA [PKH11-v1]
IC50 [2]: 2.87 mM

SVDGKEDLIW [PKH11]
IC50 [2]: 1.81 mM
PEP inhibitory activity (% inhibition) [2]: 22%
PEP Residual Activity (%) [2]: 78.0 ± 3.1 %
